Read-outs that look alike come from different tables or passages of the source.
Assays:
Test in all cases: Melanoma cytotoxicity assay (resazurin)
Type in all cases: cell-based
MALME-3M = tested on: MALME-3M
Experimental: (§1) On day 1, the cell line trypsinized and centrifuged to form cell pellet. The pellet was diluted in media, then counted using Countess automated cell counter. Approximately 4000 cells (198 uL) per well plated in […]. A control well of 200 uL growth media was also prepared. Wells closest to plate perimeter were filled with 200 uL PBS to prevent inner well evaporation. The 96 well plates are incubated in 37° C. incubator at 5% CO2 for 24 hours.
(§2) On day 2, compounds were added (in triplicate) along with DMSO/Dacarbazine controls (2 uL) added to bring wells to volume of 200 μL. The 96 well plates are incubated in 37° C. incubator at 5% CO2 for 24 hours.
(§3) On day 3, 40 μL of 0.15 mg/ml reszurin solution added to wells. Samples were placed in a 37° C. incubator at 5% CO2 for 6 hours. Excitation and emission for fluorescence measured at 544 nm and 590 nm using BMG Labtech Fluostar Optima plate reader
(§4) Percent viability determined by taking average of each triplicate well fluorescence and subtracting GM well reading to remove the background signal. This difference is then divided by the average of the negative control (DMSO) wells to determine percent viability.
(§5) IC50s were determined by using cereal dilution of compound to determine viability. Viabilities and concentration of cells are analyzed in Graphpad Prism by creating sigmoidal curve graph, which will determine the IC50 concentration.
(§6) We analyzed the ability of the thiazole-androstane derivatives to inhibit growth in various melanoma cell lines. The growth inhibition against melanoma cell lines of various compound is shown below in Tables 19 and 20. Inhibition results are reported as the IC50 concentration in μM of the indicated compound or as the percent viability […] of the indicated compound. NA=not available.

SK-MEL-5 = conditions: for SK-MEL-5 (% inhibition): resazurin, concentration not given
Experimental: (§7) Cytotoxicity Assay: Melanoma cells (˜4000 cells in each well) were incubated in a 96 well plates at 37° C. in 5% CO2 for 24 hours. Compounds were added in triplicates and the plate was further incubated for 24 hours. DMSO and dacarbazine were added as technical and positive controls respectively. Next day resazurin was added and the plate was further incubated for 6 hours followed by reading the plate at 544 nm (excitation) and 590 nm (emission) using BMG Labtech Fluostar Optima plate reader. IC50 values were determined by using Graphpad Prism.
as §1, §2, §3, §4, §5, §6

LOX IMVI = conditions: for IC50: Homo sapiens; for LOX-IMVI (% inhibition): concentration not given
Experimental: as §7, §1, §2, §3, §4, §5, §6

SK-MEL-25 = conditions: for IC50: Homo sapiens; for SK-MEL-25 (% inhibition): concentration not given
Experimental: as §7, §1, §2, §3, §4, §5, §6

SK-MEL-28 = conditions: for IC50: Homo sapiens, 24 hours; for IC50 / SK-MEL-28 (% inhibition): resazurin; for SK-MEL-28 (% inhibition): concentration not given
Experimental: as §7, §1, §2, §3, §4, §5, §6

[1] = LOX IMVI melanoma cells, 24 hours with compound, resazurin
[2] = LOX IMVI melanoma cells, 24 hours, resazurin
[3] = SK-MEL-25 melanoma cells, 24 hours, resazurin, read-out: SK-MEL-25 (IC50)
[4] = SK-MEL-25 melanoma cells, 24 hours with compound, resazurin
[5] = SK-MEL-28 melanoma cells, 24 hours with compound
[6] = SK-MEL-5 melanoma cells, 24 hours with compound
[7] = SK-MEL-25 melanoma cells (head prints SK-25), read-out: SK-25 IC50

Structure (SMILES)	MALME-3M (% viability) (MALME-3M; human, 24 h) [%]	SK-MEL-5 (% viability) (SK-MEL-5; human, 24 h) [%]	LOX-IMVI (% viability) (LOX IMVI; human, 24 h) [%]	SK-MEL-25 (% viability) (SK-MEL-25; human, 24 h) [%]	SK-MEL-28 (% viability) (SK-MEL-28; human, 24 h) [%]	LOX-IMVI (% inhibition) (LOX IMVI; [1]) [%]	further results
CCNc1nc2c(s1)C1=CC[C@H]3[C@@H]4CC[C@H](O)[C@@]4(C)CC[C@@H]3[C@@]1(C)CC2 [IIIa.3, (1S,2R,13R,14S,17S,18S)-7-(ethylamino)-2,18-dimethyl-8-thia-6-azapentacyclo[11.7.0.02,10.05,9.014,18]icosa-5(9),6,10-trien-17-ol]	51.83	2.46	6	5.06	2.00	–	IC50 (LOX IMVI; LOX IMVI melanoma cells): > 20 µM
C[C@]12CCc3nc(-c4cccc(O)c4)sc3C1=CC[C@@H]1[C@@H]2CC[C@]2(C)C(=O)CC[C@@H]12 [II.17, (1S,2R,13R,14S,18S)-7-(3-hydroxy)-2,18-dimethyl-8-thia-6-azapentacyclo[11.7.0.02,10.05,9.014,18]icosa-5(9),7,10-trien-17-one]	–	–	–	–	–	17	–
C[C@]12CCc3nc(-c4ccc(O)cc4)sc3C1=CC[C@@H]1[C@@H]2CC[C@]2(C)C(=O)CC[C@@H]12 [II.4, (1S,2R,13R,14S,18S)-7-(4-hydroxy)-2,18-dimethyl-8-thia-6-azapentacyclo[11.7.0.02,10.05,9.014,18]icosa-5(9),7,10-trien-17-one]	–	–	–	–	–	16	–
Cc1ccc(Nc2nc3c(s2)CC[C@@]2(C)C3=CC[C@@H]3[C@@H]2CC[C@]2(C)C(=O)CC[C@@H]32)cc1 [IIa.32, (1S,2R,13R,14S,18S)-2,18-dimethyl-7-(4-methylanilino)-6-thia-8-azapentacyclo[11.7.0.02,10.05,9.014,18]icosa-5(9),7,10-trien-17-one]	–	–	–	–	–	–	IC50 (LOX IMVI; [2]): 9 µM; IC50 (SK-MEL-25; [3]): 5 µM; SK-MEL-25 (% inhibition) (SK-MEL-25; [4]): 87%; IC50 (SK-MEL-28; SK-MEL-28 melanoma cells): > 20 µM; SK-MEL-28 (% inhibition) (SK-MEL-28; [5]): 63%
C[C@]12CCc3nc(Cc4ccccc4)sc3C1=CC[C@@H]1[C@@H]2CC[C@]2(C)C(=O)CC[C@@H]12 [II.2]	–	–	–	–	–	17	SK-MEL-5 (% inhibition) (SK-MEL-5; [6]): 77%; SK-MEL-25 (% inhibition) (SK-MEL-25; [4]): 69%; SK-MEL-28 (% inhibition) (SK-MEL-28; [5]): 98%
C[C@]12CC[C@H]3[C@@H](CC=C4c5sc(Nc6cccc(O)c6)nc5CC[C@@]43C)[C@@H]1CC[C@@H]2O [IIIa.39]	–	–	–	–	–	–	MALME-3M (% viability) (MALME-3M; MALME-3M melanoma cells, percent viability vs DMSO control, 24 hours with compound): 45.95%; SK-MEL-5 (% viability) (SK-MEL-5; SK-MEL-5 melanoma cells, percent viability vs DMSO control, 24 hours with compound): 6.75%; LOX-IMVI (% viability) (LOX IMVI; LOX IMVI melanoma cells, percent viability vs DMSO control, 24 hours with compound): 51%; SK-MEL-25 (% viability) (SK-MEL-25; SK-MEL-25 melanoma cells, percent viability vs DMSO control, 24 hours with compound): 6.33%; SK-MEL-28 (% viability) (SK-MEL-28; SK-MEL-28 melanoma cells, percent viability vs DMSO control, 24 hours with compound): 3.71%
CC(=O)Nc1nc2c(s1)C1=CC[C@H]3[C@@H]4CC[C@H](O)[C@@]4(C)CC[C@@H]3[C@@]1(C)CC2 [IIIa.37, N-[(1S,2R,13R,14S,17S,18S)-17-hydroxy-2,18-dimethyl-8-thia-6-azapentacyclo[11.7.0.02,10.05,9.014,18]icosa-5(9),6,10-trien-7-yl]acetamide]	104.91	48.52	–	39.57	62.56	–	IC50 (SK-MEL-25; [7]): > 20 µM
CNc1nc2c(s1)C1=CC[C@H]3[C@@H]4CC[C@H](O)[C@@]4(C)CC[C@@H]3[C@@]1(C)CC2 [IIIa.2, (1S,2R,13R,14S,17S,18S)-2,18-dimethyl-7-(methylamino)-8-thia-6-azapentacyclo[11.7.0.02,10.05,9.014,18]icosa-5(9),6,10-trien-17-ol]	59.51	2.02	14	6.21	1.9	–	–
C=CCNc1nc2c(s1)C1=CC[C@H]3[C@@H]4CC[C@H](O)[C@@]4(C)CC[C@@H]3[C@@]1(C)CC2 [IIIa.6, (1S,2R,13R,14S,17S,18S)-7-(allylamino)-2,18-dimethyl-8-thia-6-azapentacyclo[11.7.0.02,10.05,9.014,18]icosa-5(9),6,10-trien-17-ol]	29.73	3.52	11	3.79	2.04	–	IC50 (LOX IMVI; LOX IMVI melanoma cells): > 20 µM
C[C@]12CC[C@H]3[C@@H](CC=C4c5sc(NCCc6ccccc6)nc5CC[C@@]43C)[C@@H]1CC[C@@H]2O [IIIa.5, (1S,2R,13R,14S,17S,18S)-2,18-dimethyl-7-(2-phenylethylamino)-8-thia-6-azapentacyclo[11.7.0.02,10.05,9.014,18]icosa-5(9),6,10-trien-17-ol]	55.63	3.49	10	9.39	4.28	–	IC50 (LOX IMVI; LOX IMVI melanoma cells): 11 µM
C[C@]12CCc3nc(-c4cc(Cl)cc(Cl)c4)sc3C1=CC[C@@H]1[C@@H]2CC[C@]2(C)C(=O)CC[C@@H]12 [II.25]	–	–	–	–	–	89	–
C[C@]12CC[C@H]3[C@@H](CC=C4c5sc(Nc6ccc(C(=O)O)cc6)nc5CC[C@@]43C)[C@@H]1CC[C@@H]2O [IIIa.26, 4-[[(1S,2R,13R,14S,17S,18S)-17-hydroxy-2,18-dimethyl-8-thia-6-azapentacyclo[11.7.0.02,10.05,9.014,18]icosa-5(9),6,10-trien-7-yl]amino]benzoic acid]	113.38	93.06	79	37.03	69.56	–	–
CCCCNc1nc2c(s1)C1=CC[C@H]3[C@@H]4CC[C@H](O)[C@@]4(C)CC[C@@H]3[C@@]1(C)CC2 [IIIa.4, (1S,2R,13R,14S,17S,18S)-7-(butylamino)-2,18-dimethyl-8-thia-6-azapentacyclo[11.7.0.02,10.05,9.014,18]icosa-5(9),6,10-trien-17-ol]	4.96	2.1	2	2.63	1.69	–	IC50 (LOX IMVI; LOX IMVI melanoma cells): 7.67 µM; IC50 (SK-MEL-25; [7]): 16 µM
C[C@]12CCc3sc(Nc4ccccc4F)nc3C1=CC[C@@H]1[C@@H]2CC[C@]2(C)C(=O)CC[C@@H]12 [IIa.33, (1S,2R,13R,14S,18S)-7-(2-fluoroanilino)-2,18-dimethyl-6-thia-8-azapentacyclo[11.7.0.02,10.05,9.014,18]icosa-5(9),7,10-trien-17-one]	–	–	–	–	–	–	SK-MEL-5 (% inhibition) (SK-MEL-5; [6]): 87%; SK-MEL-25 (% inhibition) (SK-MEL-25; [4]): 77%; SK-MEL-28 (% inhibition) (SK-MEL-28; [5]): 66%
CCOc1cccc(-c2nc3c(s2)C2=CC[C@@H]4[C@H](CC[C@]5(C)C(=O)CC[C@@H]45)[C@@]2(C)CC3)c1 [II.23]	–	–	–	–	–	52	–
C[C@]12CCc3sc(Nc4cccc(C(=O)O)c4)nc3C1=CC[C@@H]1[C@@H]2CC[C@]2(C)C(=O)CC[C@@H]12 [IIa.34, 3-[[(1S,2R,13R,14S,18S)-2,18-dimethyl-17-oxo-6-thia-8-azapentacyclo[11.7.0.02,10.05,9.014,18]icosa-5(9),7,10-trien-7-yl]amino]benzoic acid]	–	–	–	–	–	–	SK-MEL-5 (% inhibition) (SK-MEL-5; [6]): 80%; SK-MEL-25 (% inhibition) (SK-MEL-25; [4]): 59%; SK-MEL-28 (% inhibition) (SK-MEL-28; [5]): 73%
COc1cccc(-c2nc3c(s2)C2=CC[C@@H]4[C@H](CC[C@]5(C)C(=O)CC[C@@H]45)[C@@]2(C)CC3)c1 [II.9, (1S,2R,13R,14S,18S)-7-(3-methoxyphenyl)-2,18-dimethol-8-thia-6-azapentacyclo[11.7.0.02,10.05,9.014,18]icosa-5(9),7,10-trien-17-one]	–	–	–	–	–	13	–
C[C@]12CCc3nc(-c4ccccc4O)sc3C1=CC[C@@H]1[C@@H]2CC[C@]2(C)C(=O)CC[C@@H]12 [II.11]	–	–	–	–	–	35	–
C[C@]12CCc3sc(Nc4ccccc4Cl)nc3C1=CC[C@@H]1[C@@H]2CC[C@]2(C)C(=O)CC[C@@H]12 [IIa.11, (1S,2R,13R,14S,18S)-7-(2-chloroanilino)-2,18-dimethyl-6-thia-8-azapentacyclo[11.7.0.02,10.05,9.014,18]icosa-5(9),7,10-trien-17-one]	–	–	–	–	–	–	SK-MEL-5 (% inhibition) (SK-MEL-5; [6]): 84%; IC50 (LOX IMVI; [2]): 12 µM; IC50 (SK-MEL-25; [3]): 9 µM; SK-MEL-25 (% inhibition) (SK-MEL-25; [4]): 96%; IC50 (SK-MEL-28; SK-MEL-28 melanoma cells): > 20 µM; SK-MEL-28 (% inhibition) (SK-MEL-28; [5]): 88%
